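48-hour exposure; five concentrations; linearly interpolated endpoints. TGI: total growth inhibition.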
Columns and labels:
Assay in all cases: DTP human tumour cell line panel, 48 h
786-0 renal = system: 786-0 renal
A498 renal = system: A498 renal
A549 NSCLC = system: A549 NSCLC
ACHN renal = system: ACHN renal
BT-549 breast = system: BT-549 breast
CAKI-1 renal = system: CAKI-1 renal
CCRF-CEM leukemia = system: CCRF-CEM leukemia
COLO 205 colon = system: COLO 205 colon
DU-145 prostate = system: DU-145 prostate
HCC-2998 colon = system: HCC-2998 colon
HCT-116 colon = system: HCT-116 colon
HCT-15 colon = system: HCT-15 colon
HL-60(TB) leukemia = system: HL-60(TB) leukemia
HOP-62 NSCLC = system: HOP-62 NSCLC
HS 578T breast = system: HS 578T breast
HT29 colon = system: HT29 colon
IGROV1 ovarian = system: IGROV1 ovarian
K-562 leukemia = system: K-562 leukemia
KM12 colon = system: KM12 colon
LOX IMVI melanoma = system: LOX IMVI melanoma
M14 melanoma = system: M14 melanoma
MALME-3M melanoma = system: MALME-3M melanoma
MCF7 breast = system: MCF7 breast
MDA-MB-231 breast = system: MDA-MB-231 breast
MDA-MB-435 = system: MDA-MB-435
MDA-N = system: MDA-N
MOLT-4 leukemia = system: MOLT-4 leukemia
NCI-H226 lung = system: NCI-H226 lung
NCI-H23 lung = system: NCI-H23 lung
NCI-H460 lung = system: NCI-H460 lung
NCI-H522 lung = system: NCI-H522 lung
NCI/ADR-RES ovarian = system: NCI/ADR-RES ovarian
OVCAR-3 ovarian = system: OVCAR-3 ovarian
OVCAR-4 ovarian = system: OVCAR-4 ovarian
OVCAR-5 ovarian = system: OVCAR-5 ovarian
OVCAR-8 ovarian = system: OVCAR-8 ovarian
PC-3 prostate = system: PC-3 prostate
RPMI-8226 leukemia = system: RPMI-8226 leukemia
RXF 393 renal = system: RXF 393 renal
SF-268 CNS = system: SF-268 CNS
SF-295 CNS = system: SF-295 CNS
SF-539 CNS = system: SF-539 CNS
SK-MEL-2 melanoma = system: SK-MEL-2 melanoma
SK-MEL-28 melanoma = system: SK-MEL-28 melanoma
SK-MEL-5 melanoma = system: SK-MEL-5 melanoma
SK-OV-3 ovarian = system: SK-OV-3 ovarian
SN12C renal = system: SN12C renal
SNB-19 CNS = system: SNB-19 CNS
SNB-75 CNS = system: SNB-75 CNS
SW-620 colon = system: SW-620 colon
T-47D breast = system: T-47D breast
TK-10 renal = system: TK-10 renal
U251 CNS = system: U251 CNS
UACC-257 melanoma = system: UACC-257 melanoma
UACC-62 melanoma = system: UACC-62 melanoma
UO-31 renal = system: UO-31 renal
EKVX NSCLC = system: EKVX NSCLC
HOP-92 NSCLC = system: HOP-92 NSCLC

Cc1cc2c(O)c(c1)CN(Cc1ccccc1)Cc1cc(C)cc(c1O)CN(Cc1ccccc1)Cc1cc(C)cc(c1O)CN(Cc1ccccc1)C2
TGI (786-0 renal): > 100 µM | TGI (A498 renal): > 100 µM | TGI (A549 NSCLC): > 100 µM | TGI (ACHN renal): > 100 µM | TGI (BT-549 breast): > 100 µM | TGI (CAKI-1 renal): > 100 µM | TGI (CCRF-CEM leukemia): > 100 µM | TGI (COLO 205 colon): > 100 µM | TGI (DU-145 prostate): > 100 µM | TGI (HCC-2998 colon): > 100 µM | TGI (HCT-116 colon): > 100 µM | TGI (HCT-15 colon): > 100 µM | TGI (HL-60(TB) leukemia): > 100 µM | TGI (HOP-62 NSCLC): > 100 µM | TGI (HS 578T breast): > 100 µM | TGI (HT29 colon): > 100 µM | TGI (IGROV1 ovarian): > 100 µM | TGI (K-562 leukemia): > 100 µM | TGI (KM12 colon): > 100 µM | TGI (LOX IMVI melanoma): > 100 µM | TGI (M14 melanoma): > 100 µM | TGI (MALME-3M melanoma): > 100 µM | TGI (MCF7 breast): > 100 µM | TGI (MDA-MB-231 breast): > 100 µM | TGI (MDA-MB-435): > 100 µM | TGI (MDA-N): > 100 µM | TGI (MOLT-4 leukemia): > 100 µM | TGI (NCI-H226 lung): > 100 µM | TGI (NCI-H23 lung): > 100 µM | TGI (NCI-H460 lung): > 100 µM | TGI (NCI-H522 lung): > 100 µM | TGI (NCI/ADR-RES ovarian): > 100 µM | TGI (OVCAR-3 ovarian): > 100 µM | TGI (OVCAR-4 ovarian): > 100 µM | TGI (OVCAR-5 ovarian): > 100 µM | TGI (OVCAR-8 ovarian): > 100 µM | TGI (PC-3 prostate): > 100 µM | TGI (RPMI-8226 leukemia): > 100 µM | TGI (RXF 393 renal): > 100 µM | TGI (SF-268 CNS): > 100 µM | TGI (SF-295 CNS): > 100 µM | TGI (SF-539 CNS): > 100 µM | TGI (SK-MEL-2 melanoma): 95.2 µM | TGI (SK-MEL-28 melanoma): > 100 µM | TGI (SK-MEL-5 melanoma): > 100 µM | TGI (SK-OV-3 ovarian): > 100 µM | TGI (SN12C renal): > 100 µM | TGI (SNB-19 CNS): > 100 µM | TGI (SNB-75 CNS): > 100 µM | TGI (SW-620 colon): > 100 µM | TGI (T-47D breast): > 100 µM | TGI (TK-10 renal): > 100 µM | TGI (U251 CNS): > 100 µM | TGI (UACC-257 melanoma): > 100 µM | TGI (UACC-62 melanoma): > 100 µM | TGI (UO-31 renal): > 100 µM

O=C(C1OC1c1ccc(F)cc1)C12CC3CC(CC(C3)C1)C2 (centres undefined)
TGI (786-0 renal): 36.5 µM | TGI (A498 renal): 58 µM | TGI (A549 NSCLC): 59.7 µM | TGI (ACHN renal): 85 µM | TGI (BT-549 breast): 67.3 µM | TGI (CAKI-1 renal): 57 µM | TGI (CCRF-CEM leukemia): 37 µM | TGI (COLO 205 colon): 30.9 µM | TGI (DU-145 prostate): > 100 µM | TGI (EKVX NSCLC): 45.1 µM | TGI (HCC-2998 colon): 36.8 µM | TGI (HCT-116 colon): 20.1 µM | TGI (HCT-15 colon): 56.7 µM | TGI (HL-60(TB) leukemia): 31.1 µM | TGI (HOP-62 NSCLC): 70.8 µM | TGI (HOP-92 NSCLC): 52.7 µM | TGI (HS 578T breast): 60.1 µM | TGI (HT29 colon): 45.4 µM | TGI (IGROV1 ovarian): 59.8 µM | TGI (K-562 leukemia): 37.2 µM | TGI (KM12 colon): 46.8 µM | TGI (LOX IMVI melanoma): 12.3 µM | TGI (M14 melanoma): 31.4 µM | TGI (MALME-3M melanoma): 78.6 µM | TGI (MCF7 breast): 95.4 µM | TGI (MDA-MB-231 breast): 52.8 µM | TGI (MDA-MB-435): 26.2 µM | TGI (MDA-N): 32.5 µM | TGI (MOLT-4 leukemia): 35.3 µM | TGI (NCI-H226 lung): 46.6 µM | TGI (NCI-H23 lung): 43.4 µM | TGI (NCI-H460 lung): 31.1 µM | TGI (NCI-H522 lung): 38.2 µM | TGI (NCI/ADR-RES ovarian): 48.1 µM | TGI (OVCAR-3 ovarian): 33.5 µM | TGI (OVCAR-4 ovarian): 40.2 µM | TGI (OVCAR-5 ovarian): 54.7 µM | TGI (OVCAR-8 ovarian): 29 µM | TGI (PC-3 prostate): > 100 µM | TGI (RXF 393 renal): 32.7 µM | TGI (SF-268 CNS): 61.2 µM | TGI (SF-295 CNS): 79.1 µM | TGI (SF-539 CNS): 45.7 µM | TGI (SK-MEL-2 melanoma): 30.6 µM | TGI (SK-MEL-28 melanoma): 59 µM | TGI (SK-MEL-5 melanoma): 30.7 µM | TGI (SK-OV-3 ovarian): 70.3 µM | TGI (SN12C renal): 44.4 µM | TGI (SNB-19 CNS): > 100 µM | TGI (SNB-75 CNS): > 100 µM | TGI (SW-620 colon): 44.2 µM | TGI (T-47D breast): > 100 µM | TGI (TK-10 renal): > 100 µM | TGI (U251 CNS): 24.5 µM | TGI (UACC-257 melanoma): 86.6 µM | TGI (UACC-62 melanoma): 38.7 µM | TGI (UO-31 renal): 51.5 µM

C[C@]12CC[C@@H]3c4cc(Br)c(O)c(Br)c4CC[C@H]3[C@@H]1CC(Br)C2=O (some centres undefined)
TGI (786-0 renal): > 100 µM | TGI (A498 renal): 44.6 µM | TGI (A549 NSCLC): 38.8 µM | TGI (ACHN renal): 21.2 µM | TGI (BT-549 breast): 17.6 µM | TGI (CAKI-1 renal): 15.9 µM | TGI (CCRF-CEM leukemia): 50.5 µM | TGI (COLO 205 colon): > 100 µM | TGI (DU-145 prostate): > 100 µM | TGI (EKVX NSCLC): 39.6 µM | TGI (HCC-2998 colon): 3.73 µM | TGI (HCT-116 colon): > 100 µM | TGI (HCT-15 colon): 10.1 µM | TGI (HL-60(TB) leukemia): 7.52 µM | TGI (HOP-92 NSCLC): 45.6 µM | TGI (HS 578T breast): 82.4 µM | TGI (HT29 colon): 10.7 µM | TGI (IGROV1 ovarian): 23.6 µM | TGI (K-562 leukemia): 13.6 µM | TGI (KM12 colon): 15.8 µM | TGI (LOX IMVI melanoma): > 100 µM | TGI (M14 melanoma): > 100 µM | TGI (MALME-3M melanoma): 34.2 µM | TGI (MCF7 breast): 29.9 µM | TGI (MDA-MB-231 breast): 75 µM | TGI (MDA-MB-435): 21.6 µM | TGI (MDA-N): 43.5 µM | TGI (MOLT-4 leukemia): 9.36 µM | TGI (NCI-H226 lung): 26.6 µM | TGI (NCI-H460 lung): 18.8 µM | TGI (NCI/ADR-RES ovarian): 39.5 µM | TGI (OVCAR-4 ovarian): > 100 µM | TGI (OVCAR-5 ovarian): 73.2 µM | TGI (OVCAR-8 ovarian): 7.83 µM | TGI (PC-3 prostate): 27.2 µM | TGI (RXF 393 renal): 19.3 µM | TGI (SF-268 CNS): 26.8 µM | TGI (SF-295 CNS): 33.1 µM | TGI (SF-539 CNS): 24.4 µM | TGI (SK-MEL-2 melanoma): 27.3 µM | TGI (SK-MEL-28 melanoma): 22.3 µM | TGI (SK-OV-3 ovarian): 30.2 µM | TGI (SN12C renal): 38.4 µM | TGI (SNB-75 CNS): 27.9 µM | TGI (SW-620 colon): 9.57 µM | TGI (T-47D breast): > 100 µM | TGI (TK-10 renal): 29.4 µM | TGI (U251 CNS): 12.7 µM | TGI (UACC-257 melanoma): 33.5 µM | TGI (UACC-62 melanoma): 14.8 µM | TGI (UO-31 renal): 9.03 µM

— PubChem BioAssay (NCI)
